In ChEMBL document CHEMBL1201862, “PubChem BioAssay data set” (2004):
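48-hour exposure; five concentrations; linearly interpolated endpoints. The concentration for 50% growth inhibition is given as GI50.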 The source made the active and inactive calls. Rule as the data show it: active = GI50 up to about 1.1 µM and inactive = higher.

What was measured:
Assay in all cases: DTP human tumour cell line panel, 48 h
[1] = tested on: A498
[2] = tested on: M19-MEL
[3] = tested on: M14
[4] = tested on: HOP-62
[5] = tested on: IGROV-1
[6] = tested on: A549
[7] = tested on: DMS-273
[8] = tested on: CAKI-1
[9] = tested on: RXF 393
[10] = tested on: HCT-15
[11] = tested on: NCI-H226
[12] = tested on: HT-29
[13] = tested on: SF-539
[14] = tested on: KM-20L2
[15] = tested on: KM12
[16] = tested on: TK-10
[17] = tested on: OVCAR-4
[18] = tested on: SR

With `Nc1ccn(CC(CO)CC(c2ccccc2)P(=O)(O)O)c(=O)n1` (configuration not stated) the GI50 [1] was > 100 µM (inactive), the GI50 [2] was > 100 µM (inactive) and the GI50 [3] was > 100 µM (inactive). For the same compound, the GI50 [4] was > 100 µM (inactive), the GI50 [5] was > 100 µM (inactive) and the GI50 [6] was > 100 µM (inactive). The GI50 [7] was > 100 µM (inactive), the GI50 [8] was > 100 µM (inactive) and the GI50 [9] was > 100 µM (inactive). The GI50 [10] was > 100 µM, the GI50 [11] was > 100 µM (inactive) and the GI50 [12] was > 100 µM (inactive). The GI50 [13] was > 100 µM (inactive), the GI50 [14] was > 100 µM (inactive) and the GI50 [15] was > 100 µM (inactive). For the same compound, the GI50 [16] was > 100 µM (inactive).
In the case of `Cc1ccc(C2C(Cl)C(=O)N2NC(=O)c2ccc(N)cc2)cc1` (configuration not stated), the GI50 [1] is reported as 22.5 µM (inactive), the GI50 [2] is reported as 19.8 µM (inactive) and the GI50 [3] is reported as 18.7 µM (inactive). For the same compound, the GI50 [4] was 22.4 µM (inactive), the GI50 [5] was 8.97 µM (inactive) and the GI50 [6] was 27.7 µM (inactive). The GI50 [17] was 29 µM (inactive), the GI50 [7] was 2.46 µM (inactive) and the GI50 [8] was 20.1 µM (inactive). For the same compound, the GI50 [10] was 15.7 µM, the GI50 [11] was 27.4 µM (inactive) and the GI50 [12] was 21.2 µM (inactive). For the same compound, the GI50 [13] was 23.9 µM (inactive), the GI50 [14] was 23.8 µM (inactive) and the GI50 [15] was 25.5 µM (inactive). The GI50 [16] was 43.6 µM (inactive).
With `COC(=O)/C(C=O)=C/Sc1ccccc1` the GI50 [2] was 20 µM (inactive), the GI50 [3] was 16.6 µM (inactive) and the GI50 [4] was 45.4 µM (inactive). For the same compound, the GI50 [5] was 13.9 µM (inactive), the GI50 [6] was 11.3 µM (inactive) and the GI50 [17] was 45 µM (inactive). For the same compound, the GI50 [7] was 18.4 µM (inactive), the GI50 [8] was 24.2 µM (inactive) and the GI50 [9] was 15.3 µM (inactive). For the same compound, the GI50 [10] was 22.6 µM, the GI50 [11] was 15.8 µM (inactive) and the GI50 [12] was 25.5 µM (inactive). For the same compound, the GI50 [13] was 18 µM (inactive), the GI50 [14] was 29.7 µM (inactive) and the GI50 [15] was 24.1 µM (inactive). The GI50 [18] was 40.1 µM (inactive) and the GI50 [16] was 40.6 µM (inactive).
For `CC1=NOC(=O)/C1=C/c1ccc([N+](=O)[O-])cc1`, the GI50 [1] was > 100 µM (inactive), the GI50 [3] was > 100 µM (inactive) and the GI50 [4] was > 100 µM (inactive). The GI50 [5] was > 100 µM (inactive), the GI50 [6] was > 100 µM (inactive) and the GI50 [17] was > 100 µM (inactive). The GI50 [7] was > 100 µM (inactive), the GI50 [8] was > 100 µM (inactive) and the GI50 [9] was > 100 µM (inactive). For the same compound, the GI50 [10] was > 100 µM, the GI50 [11] was > 100 µM (inactive) and the GI50 [12] was > 100 µM (inactive). The GI50 [13] was > 100 µM (inactive), the GI50 [14] was > 100 µM (inactive) and the GI50 [15] was > 100 µM (inactive). For the same compound, the GI50 [18] was > 100 µM (inactive) and the GI50 [16] was > 100 µM (inactive).
With `CC1=CC2CC(C)C1(C)CCc1ccoc12` (configuration not stated) the GI50 [1] was > 100 µM (inactive), the GI50 [2] was > 100 µM (inactive) and the GI50 [3] was > 100 µM (inactive). For the same compound, the GI50 [4] was > 100 µM (inactive), the GI50 [5] was > 100 µM (inactive) and the GI50 [6] was > 100 µM (inactive). The GI50 [17] was > 100 µM (inactive), the GI50 [7] was > 100 µM (inactive) and the GI50 [8] was > 100 µM (inactive). The GI50 [9] was > 100 µM (inactive), the GI50 [10] was > 100 µM and the GI50 [12] was > 100 µM (inactive). For the same compound, the GI50 [13] was > 100 µM (inactive), the GI50 [14] was > 100 µM (inactive) and the GI50 [15] was > 100 µM (inactive). For the same compound, the GI50 [18] was > 100 µM (inactive) and the GI50 [16] was > 100 µM (inactive).
In the case of `CC(C)OP(=O)(OC(C)C)C1=NN(c2ccc([N+](=O)[O-])cc2)C(P(=O)(OC(C)C)OC(C)C)=NN1c1ccc([N+](=O)[O-])cc1`, the GI50 [2] is reported as > 100 µM (inactive), the GI50 [3] is reported as > 100 µM (inactive) and the GI50 [4] is reported as > 100 µM (inactive). For the same compound, the GI50 [5] was > 100 µM (inactive), the GI50 [6] was 7.94 µM (inactive) and the GI50 [17] was > 100 µM (inactive). For the same compound, the GI50 [7] was 22.5 µM (inactive), the GI50 [8] was 63.5 µM (inactive) and the GI50 [9] was > 100 µM (inactive). For the same compound, the GI50 [10] was 9.18 µM, the GI50 [11] was > 100 µM (inactive) and the GI50 [12] was 44 µM (inactive). The GI50 [13] was 31 µM (inactive), the GI50 [14] was > 100 µM (inactive) and the GI50 [15] was 67.3 µM (inactive). The GI50 [18] was 9.08 µM (inactive) and the GI50 [16] was > 100 µM (inactive).
`COc1ccc(-c2ccccc2)c(N/N=C2\CCCNC2=O)c1` was tested, and the GI50 [2] was > 100 µM (inactive), the GI50 [3] was > 100 µM (inactive) and the GI50 [4] was 19.6 µM (inactive). For the same compound, the GI50 [5] was > 100 µM (inactive), the GI50 [6] was 12.9 µM (inactive) and the GI50 [7] was > 100 µM (inactive). The GI50 [9] was 11 µM (inactive), the GI50 [10] was > 100 µM and the GI50 [11] was > 100 µM (inactive). For the same compound, the GI50 [12] was > 100 µM (inactive), the GI50 [13] was 50.7 µM (inactive) and the GI50 [14] was > 100 µM (inactive). For the same compound, the GI50 [15] was > 100 µM (inactive), the GI50 [18] was 3.55 µM (inactive) and the GI50 [16] was > 100 µM (inactive).
In the case of `COC(=O)C1=C(C[S+]([O-])c2ccccc2[N+](=O)[O-])ON(C)C1c1ccccc1` (configuration not stated), the GI50 [1] is reported as > 100 µM (inactive), the GI50 [2] is reported as 47 µM (inactive) and the GI50 [3] is reported as 94 µM (inactive). The GI50 [4] was > 100 µM (inactive), the GI50 [5] was > 100 µM (inactive) and the GI50 [6] was 47.2 µM (inactive). The GI50 [17] was 66.7 µM (inactive), the GI50 [7] was 28.1 µM (inactive) and the GI50 [8] was 45.7 µM (inactive). For the same compound, the GI50 [9] was 25.4 µM (inactive), the GI50 [10] was 22.5 µM and the GI50 [11] was 37.8 µM (inactive). For the same compound, the GI50 [12] was 32.1 µM (inactive), the GI50 [13] was 27.3 µM (inactive) and the GI50 [14] was 21.5 µM (inactive). The GI50 [15] was 55.5 µM (inactive) and the GI50 [16] was 35.7 µM (inactive).
